The target in assay [1] is human CYP11B1 (Homo sapiens (Human), UniProt P15538). In words: G-402 cellular enzyme assay, human CYP11B1 (cortisol release, HTRF). The conditions noted are these: G-402 cells expressing human CYP11B1; 1 μM Deoxycortisol. Type of assay: cell-based. From the text:
(§1) Herein we identified the use of the G-402 cell line as a host cell to ectopically express (transiently or stably) enzymes of the CYP11 family. Specifically we developed stable G-402 cells expressing ectopically human CYP11B1, human CYP11B2, human CYP11A1, cynmolgus CYP11B1 or cynomolgus CYP11B2 enzyme activity. Importantly the identified cell line G-402 expresses co-factors (adrenodoxin and adrenodoxin reductase) important for the activity of the CYP11 family and no relevant enzyme activity of the CYP11 family (in comparison to H295R cells) was detected in these cells. Therefore the G-402 cell line is uniquely suited as a host cell for the ectopic expression of enzymes from the CYP11 family.
(§2) The expression plasmids contains the ORF for either huma/cyno CYP11B1 or CYP11B2 under the control of a suitable promoter (CMV-promoter) and a suitable resistance marker (neomycin). Using standard techniques the expression plasmid is transfected into G-402 cells and these cells are then selected for expressing the given resistance markers. Individual cell-clones are then selected and assessed for displaying the desired enzymatic activity using 11-Deoxycorticosterone (Cyp11B2) or 11-Deoxycortisol (Cyp11B1) as a substrate.
(§3) G-402 cells expressing CYP11 constructs were established as described above and maintained in McCoy's 5a Medium Modified, ATCC Catalog No. 30-2007 containing 10% FCS and 400 μg/ml G418 (Geneticin) at 37° C. under an atmosphere of 5% CO2/95% air. Cellular enzyme assays were performed in DMEM/F12 medium containing 2.5% charcoal treated FCS and appropriate concentration of substrate (0.3-10 uM 11-Deoxycorticosterone, 11-Deoxycortisol or Corticosterone). For assaying enzymatic activity, cells were plated onto 96 well plates and incubated for 16 h. An aliquot of the supernatant is then transferred and analyzed for the concentration of the expected product (Aldosterone for CYP11B2; Cortisol for CYP11B1). The concentrations of these steroids can be determined using HTRF assays from CisBio analyzing either Aldosterone or Cortisol.
(§4) Inhibition of the release of produced steroids can be used as a measure of the respective enzyme inhibition by test compounds added during the cellular enzyme assay. The dose dependent inhibition of enzymatic activity by a compound is calculated by means of plotting added inhibitor concentrations (x-axes) vs. measured steroid/product level (y-axes). The inhibition is then calculated by fitting the following 4-parameter sigmoidal function (Morgan-Mercer-Flodin (MMF) model) to the raw data points using the least squares method:
(§5) [formula] wherein, A is the maximum y value, B is the EC50 factor determined using XLFit, C is the minimum y value and D is the slope value.
(§6) EC50 values for compounds claimed herein were tested with the G402-based assay system described. Cyp11B2 enzyme activity was tested in presence of 1 μM Deoxycorticosterone and variable amounts of inhibitors; Cyp11B1 enzyme activity was tested in presence of 1 μM Deoxycortisol and variable amounts of inhibitors.

The target of assay [2] is human CYP11B2 (Homo sapiens (Human), UniProt P19099). Briefly: G-402 cellular enzyme assay, human CYP11B2 (aldosterone release, HTRF). Type of assay: cell-based. The conditions noted are these: G-402 cells expressing human CYP11B2; 1 μM Deoxycorticosterone.
Text: as §1, §2, §3, §4, §5, §6
A general note: TR-FRET usually uses a lanthanide donor and a delayed reading to cut background.

Assay [3] relates to rat model of chronic kidney disease. The conditions noted are these: cited from earlier work; for plasma aldosterone: FAD286 following 4 weeks of treatment, spironolactone at 4 and 8 weeks; for renal effects (albuminuria, azotemia, renovascular hypertrophy, glomerular injury, PAI-1 and osteopontin mRNA, tubulointerstitial fibrosis): angiotensin II and high salt treatment.
Assay [4] has as its system rats with experimental heart failure. The conditions noted are these: cited from earlier work.
Assay [5] deals with patients with primary aldosteronism. The conditions noted are these: cited from earlier work.

Sequence of human CYP11B2 (P19099 25-503): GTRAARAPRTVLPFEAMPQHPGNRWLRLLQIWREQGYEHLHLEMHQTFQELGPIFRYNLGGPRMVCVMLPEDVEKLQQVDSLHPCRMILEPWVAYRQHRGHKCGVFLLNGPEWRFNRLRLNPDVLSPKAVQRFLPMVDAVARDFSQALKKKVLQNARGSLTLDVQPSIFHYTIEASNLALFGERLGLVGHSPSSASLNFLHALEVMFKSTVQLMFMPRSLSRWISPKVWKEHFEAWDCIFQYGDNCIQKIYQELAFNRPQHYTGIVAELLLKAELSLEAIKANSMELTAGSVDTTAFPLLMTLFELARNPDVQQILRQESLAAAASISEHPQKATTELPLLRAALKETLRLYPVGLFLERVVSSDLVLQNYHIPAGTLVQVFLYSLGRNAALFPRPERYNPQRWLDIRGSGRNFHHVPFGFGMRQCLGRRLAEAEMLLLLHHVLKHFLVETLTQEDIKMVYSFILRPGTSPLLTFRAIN
Sequence of human CYP11B1 (P15538 25-503): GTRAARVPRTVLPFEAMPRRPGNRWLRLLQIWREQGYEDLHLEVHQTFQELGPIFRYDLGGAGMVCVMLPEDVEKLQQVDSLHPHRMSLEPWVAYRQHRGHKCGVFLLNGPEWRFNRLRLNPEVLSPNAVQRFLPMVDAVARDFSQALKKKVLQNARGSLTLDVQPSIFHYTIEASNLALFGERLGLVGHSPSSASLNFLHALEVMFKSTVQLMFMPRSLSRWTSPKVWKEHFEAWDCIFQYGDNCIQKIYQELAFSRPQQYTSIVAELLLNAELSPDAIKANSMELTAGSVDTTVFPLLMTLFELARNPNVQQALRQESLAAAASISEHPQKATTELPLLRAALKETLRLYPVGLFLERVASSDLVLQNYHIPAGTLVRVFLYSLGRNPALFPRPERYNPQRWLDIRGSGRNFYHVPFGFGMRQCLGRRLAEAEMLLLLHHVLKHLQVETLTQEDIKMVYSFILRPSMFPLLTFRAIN

As usually defined, the EC50 is the concentration giving half of the maximal effect. Read a high EC50 as lower potency in that assay. Consider `Cc1c(COc2cccc(F)n2)cncc1-c1cc2c(cc1F)N(C)C(=O)CC2` [Example 27, 7-Fluoro-6-[5-(6-fluoro-pyridin-2-yloxymethyl)-4-methyl-pyridin-3-yl]-1-methyl-3,4-dihydro-1H-quinolin-2-one], for which the EC50 in assay [1] was 20.8 nM; in assay [2], 0.2 nM.
For the compound `Cc1cccc(NC(=O)Cc2cncc(-c3ccc4c(c3)CCC(=O)N4C)c2)n1` [Example 28, 2-[5-(1-Methyl-2-oxo-1,2,3,4-tetrahydro-quinolin-6-yl)-pyridin-3-yl]-N-(6-methyl-pyridin-2-yl)-acetamide], the EC50 in assay [1] was 14.5 nM; in assay [2], 2.2 nM.
On the same counts, the results for `CN1C(=O)CCc2cc(-c3cncc(CC(=O)Nc4cccc(Cl)c4)c3)ccc21` [Example 29, N-(3-Chloro-phenyl)-2-[5-(1-methyl-2-oxo-1,2,3,4-tetrahydro-quinolin-6-yl)-pyridin-3-yl]-acetamide] are 307 nM and 12.7 nM.
On the same counts, the results for `CN1C(=O)CCc2cc(-c3cncc(CC(=O)Nc4cccc(Cl)n4)c3)ccc21` [Example 30, N-(6-Chloro-pyridin-2-yl)-2-[5-(1-methyl-2-oxo-1,2,3,4-tetrahydro-quinolin-6-yl)-pyridin-3-yl]-acetamide] are 40.5 nM and 6.8 nM.
As to `N#Cc1ccc([C@H]2CCCc3cncn32)cc1` [FAD286], in assay [3], the plasma aldosterone entry is “reduced”; the “renal effects (albuminuria, azotemia, renovascular hypertrophy, glomerular injury, PAI-1 and osteopontin mRNA, tubulointerstitial fibrosis)” value was “prevented these renal effects”; the “angiotensin II and salt-stimulated PAI-1 mRNA expression in the aorta and the heart” value is reported as “not”. In assay [4], the “blood pressure and cardiovascular function and structure” value is “improved”; the “kidney function and morphology” value was “improve”.
Consider `N#Cc1ccc([C@H]2CCc3cncn32)c(F)c1` [LCI699], for which the “selectivity (effects on the glucocorticoid axis)” value in assay [5] is “poor selectivity”. Further, in assay [5] (oral), the blood pressure result is “mildly decreased”, the circulating aldosterone levels result is recorded as “significantly lower” and the hypokalemia entry is listed as “corrected”.
For the compound `CC(=O)S[C@@H]1CC2=CC(=O)CC[C@]2(C)[C@H]2CC[C@@]3(C)[C@@H](CC[C@@]34CCC(=O)O4)[C@H]12` [spironolactone], in assay [3], the plasma aldosterone entry is “increased”; the “renal effects (albuminuria, azotemia, renovascular hypertrophy, glomerular injury, PAI-1 and osteopontin mRNA, tubulointerstitial fibrosis)” value is “prevented these renal effects”; the “angiotensin II and salt-stimulated PAI-1 mRNA expression in the aorta and the heart” value is recorded as “enhanced”.

The record behind these values is patent US9458135B2, “Dihydroquinoline-2-one derivatives” (Hoffmann-La Roche Inc., priority 2014, dated 2016).
